Reference: patent US8865748B2, “Compounds and compositions for stabilizing hypoxia inducible factor-2 alpha as a method for treating cancer” (Akebia Therapeutics Inc., priority 2011, dated 2014)

Key:
[1] = test system: endothelial cell marker CD31; experiment: Tumor vascularity by CD31 immunohistochemistry in melanoma-bearing mice; assay type: in vivo; settings: mice treated with the control antibody; FIG. 14B; p=0.022
[2] = test system: phosphoglycerate kinase (PGK) mRNA; experiment: Phosphoglycerate kinase (PGK) mRNA expression in wild type murine embryonic fibroblasts (quantitative PCR); assay type: cell-based; settings: hypoxic conditions (1% O2); 1, 10 and 100 μM; vs. hypoxia control; FIG. 2A
Procedure: (§1) Total RNA was isolated from tissues and cells by using TRIzol™ Reagent (Invitrogen) and the RNeasy kit (Qiagen), respectively. 1 μg RNA was used for reverse transcription using SuperScript II First-Strand Synthersis System (Invitrogen). cDNA's were amplified in a SYR Green or TaqMan Universal Master Mix (Applied Biosystems). Quantitative PCR (qPCR) was performed on ABI Prism 7700 sequence detection system. PCR conditions are: 10 min at 95° C., 40 cycles of 15 seconds at 95° C. and 1 minute at 60° C. The relative amount of mRNA was calculated after normalization to β-actin.
(§2) Cells were cultured in DMEM (#11965-092, Invitrogen) supplemented with 10% fetal bovine serum (Invitrogen), 100 U/mL penicillin and […] streptomycin. For glucose deprivation, DMEM without glucose (#11966-025, Invitrogen) was used.
(§3) Mouse embryonic fibroblasts (MEFs) were isolated from E12.5 embryos and immortalized by stable transfection with SV40 large T antigen.

[3] = test system: B16F10 melanoma tumors; experiment: Murine melanoma tumor model (B16F10 in C57BL/6 mice); assay type: in vivo; settings: for tumor growth: FIG. 14A
Procedure: Mice were injected with 1×10^5 B16F10 murine melanoma cells murine subcutaneously on the left flank. Once tumors become palpable (approximately 5 days), mice were randomly allocated to receive treatment with either: 20% polyethylene glycol (PEG) in 5% […] (vehicle control for the disclosed HIF-2α stabilizer) and PBS (vehicle control for GM-CSF), 20% PEG and GM-CSF (100 ng per mouse in a 50 μL volume), the disclosed HIF-2α stabilizer (17.5 mg/kg in a 100 μL volume) and PBS, or the disclosed HIF-2α stabilizer and GM-CSF (same doses). The PBS and GM-CSF were administered intratumorally, while the 20% PEG and the disclosed HIF-2α stabilizer were administered intraperitoneally. Mice were treated 3 times per week until tumors reached a size of 20 mm in any dimension (approximately 2.5 weeks), at which point mice were euthanized, in accordance with institutional policy. Tumor diameters were measured 3 times per week with calipers, and tumor volumes were calculated as follows: Tumor volume=0.5×[(large diameter)×(small diameter)^2].
6-8-week-old C57BL/6 mice were injected with 1×10^5 B16F10 murine melanoma cells murine subcutaneously on the left flank. Once tumors become palpable (approximately 5 days), mice were randomly allocated to receive treatment with either: 20% PEG-400 in 5% sucrose (vehicle for disclosed HIF-2α stabilizer) and PBS (vehicle for GM-CSF), 20% PEG-400 and GM-CSF (100 ng per mouse in a 50 μL volume), disclosed HIF-2α stabilizer (17.5 mg/kg mouse weight in a 100 μL volume) and PBS, or the disclosed HIF-2α stabilizer and GM-CSF (same concentrations). The disclosed HIF-2α stabilizer (or the vehicle control) was administered intraperitoneally, while GM-CSF (or the vehicle control) was administered intratumorally. Mice were treated […] 3 times per week until tumors reached a size of 20 mm in any dimension (approximately 2.5 weeks), at which point mice were be euthanized, in accordance with institutional policy. Tumor diameters were measured 3 times per week with calipers, and tumor volumes will be calculated as follows: Tumor volume=0.5×[(large diameter)×(small diameter)^2]. For experiments analyzing the effect of neutralizing sVEGFR-1 in combination with disclosed HIF-2α stabilizer treatment, mice were treated intraperitoneally 3×/week with either disclosed HIF-2α stabilizer or vehicle control, and intratumorally with either 4 μg anti-VEGFR-1 neutralizing antibody (R&D Systems) or 4 μg polyclonal goat IgG isotype control (Santa Cruz Biotechnology) in a 50 μL volume. All protocols were approved by the Ohio State University Animal Care and Use Committee, and mice were treated in accordance with institutional guidelines for animal care.
The ANOVA test was used to compare independent measurements between multiple treatment groups. The data was log-transformed to normalize the variance across groups. P-values were adjusted using the Holm's procedure to conserve the type I error at 0.05 due to the multiple comparisons. For tumor growth data, changes in tumor volume over time were assessed via a longitudinal model. Tumor values were log-transformed, and estimated slopes (changes in tumor volume over time) were calculated with 95% confidence intervals. Estimated differences in tumor volume were calculated by a random-effects regression of the longitudinal data. For all analyses, p≦0.05 was considered statistically significant.
To confirm that the modulation of tumor growth and angiogenesis was due to sVEGFR-1 production in response to the disclosed HIF-2α stabilizer, mice were treated with the disclosed HIF-2α stabilizer in the presence or absence of an sVEGFR-1 neutralizing Ab.
6-8-week-old C57BL/6 mice or SCID mice were injected with 1×10^5 B16F10 murine melanoma cells or 1×10^6 A375 human melanoma cells, respectively, subcutaneously on the left flank. […]

[4] = test system: VEGF mRNA; experiment: VEGF mRNA expression in wild type murine embryonic fibroblasts (quantitative PCR); assay type: cell-based; settings: hypoxic conditions (1% O2); 1, 10 and 100 μM; vs. hypoxia control; FIG. 1A
Procedure: as §1, §2, §3

O=C(O)CNC(=O)c1ncc(-c2cccc(F)c2)cc1O [disclosed HIF-2α stabilizer, {[5-(3-Fluorophenyl)-3-hydroxypyridine-2-carbonyl]amino}acetic acid]
tumor vascularity (CD31) [1]: decreased tumor vascularity
PGK mRNA (relative amount) [2]: dramatic reduction
tumor growth (tumor volume) ([3]; FIG. 3, stabilizer 17 mg/kg I.P., GM-CSF 100 ng per mouse I.T., 3 times per week, vs. PBS control): reduces tumor growth
increase in median survival ([3]; FIG. 12B, median survival defined as the time to a tumor diameter of 20 mm, 17.5 mg/kg intraperitoneal 3x/week, p=0.023): 3 days
average tumor volumes vs. vehicle controls ([3]; day 16 of treatment, GM-CSF 100 ng/mouse intratumoral or stabilizer 17.5 mg/kg intraperitoneal, 3x/week, each p<0.001): significantly smaller
tumor growth ([3]; mice also treated with the anti-sVEGFR-1 neutralizing antibody, p=0.245): no effect on tumor growth
tumor growth ([3]; mice treated with an isotype control antibody, p<0.001): decreased tumor growth
VEGF mRNA (relative amount) [4]: dramatic reduction
